Data reported in US9085603B2, “Progesterone receptor antagonists” (Bayer Intellectual Property GmbH, priority 2010, dated 2015).

What follows are compounds tested against T1, human progesterone receptor A (Homo sapiens, UniProt P06401) (assay: Progesterone receptor antagonistic effect in stably transfected SK-N-MC cells, MTV-LUC reporter (PR-A)). Details: antagonism of 0.1 nmol/l promegestone, luciferase reporter, 24 hours.
T1 construct: expressed in transfected cells; host or cells: SK-N-MC human neuroblastoma cells, stably transfected with pRChPR-A-neo and pMMTV-LUC
T1 sequence (P06401 1-769 isoform P06401-2): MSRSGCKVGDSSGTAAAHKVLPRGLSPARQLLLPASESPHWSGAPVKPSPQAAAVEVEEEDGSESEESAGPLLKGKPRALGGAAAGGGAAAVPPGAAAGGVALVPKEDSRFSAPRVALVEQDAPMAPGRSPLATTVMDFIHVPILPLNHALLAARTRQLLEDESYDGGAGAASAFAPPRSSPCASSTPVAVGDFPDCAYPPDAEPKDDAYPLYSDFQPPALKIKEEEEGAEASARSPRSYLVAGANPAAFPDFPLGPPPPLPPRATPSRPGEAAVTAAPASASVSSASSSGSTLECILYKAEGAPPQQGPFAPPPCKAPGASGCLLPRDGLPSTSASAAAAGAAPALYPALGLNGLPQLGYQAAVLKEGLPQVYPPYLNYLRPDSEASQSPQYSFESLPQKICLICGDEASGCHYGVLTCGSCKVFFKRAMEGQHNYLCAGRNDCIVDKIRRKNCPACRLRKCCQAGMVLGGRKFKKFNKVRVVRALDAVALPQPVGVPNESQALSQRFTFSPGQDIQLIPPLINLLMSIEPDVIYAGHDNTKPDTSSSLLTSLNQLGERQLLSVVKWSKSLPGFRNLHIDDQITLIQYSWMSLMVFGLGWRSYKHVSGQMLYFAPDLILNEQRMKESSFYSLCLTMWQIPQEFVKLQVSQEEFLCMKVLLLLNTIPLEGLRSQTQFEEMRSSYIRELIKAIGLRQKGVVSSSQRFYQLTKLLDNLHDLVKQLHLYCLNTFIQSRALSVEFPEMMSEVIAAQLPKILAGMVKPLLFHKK
Assay type: cell-based
Protocol: Progesterone Receptor Antagonistic Effect in Stable Transfectants of Human Neuroblastoma Cells (SK-N-MC cells) with the Human Progesterone A or Progesterone B Receptor and a MTV-LUC Reporter Construct
SK-N-MC cells (human neuroblastoma cells), which have been stably transfected with plasmids which express the human progesterone receptor B (pRChPR-B-neo) or the human progesterone receptor A (pRChPR-A-neo) and a reporter construct (pMMTV-LUC), were incubated for 24 hours either in the absence (negative control) or in the presence of increasing amounts of the particular test compound (0.01 nmol/l, 0.1 nmol/l, 1 nmol/l, 10 nmol/l, 100 nmol/l and 1 μmol/l) in order to determine the agonistic efficacy. As a positive control of the reporter gene induction, the cells were treated with the synthetic gestagen promegestone (0.01 nmol/l, 0.1 nmol/l, 1 nmol/l, 10 nmol/l, 100 nmol/l and 1 μmol/l). To determine the antagonistic activity, the cells were treated with 0.1 nmol/l of promegestone and additionally with increasing amounts of the particular test compound (0.01 nmol/l, 0.1 nmol/l, 1 nmol/l, 10 nmol/l, 100 nmol/l and 1 μmol/l). The activity of the reporter gene LUC (LUC=luciferase) was determined in the cell lysates and measured as RLU (relative light units). All measurement values are given as percentage efficacy and as EC50 or IC50 concentrations.
`CC(=O)Nc1ccc(NCc2ccc([C@H]3C[C@@]4(C)[C@@H](CC[C@@]4(O)C(F)(F)C(F)(F)F)[C@@H]4CCC5=CC(=O)CCC5=C43)cc2)cc1` [Example 38, N-[4-({4-[(11β,17β)-17-Hydroxy-3-oxo-17-(pentafluoroethyl)estra-4,9-dien-11-yl]benzyl}amino)phenyl]acetamide] was tested, and the IC50 was 0.66 nM.
For `COC(=O)c1cccc(NCc2ccc([C@H]3C[C@@]4(C)[C@@H](CC[C@@]4(O)C(F)(F)C(F)(F)F)[C@@H]4CCC5=CC(=O)CCC5=C43)cc2)c1` [Example 39, Methyl 3-({4-[(11β,17β)-17-hydroxy-3-oxo-17-(pentafluoroethyl)estra-4,9-dien-11-yl]benzyl}amino)benzoate], the IC50 was 1.77 nM.
`C[C@]12C[C@H](c3ccc(CNc4cccc(S(N)(=O)=O)c4)cc3)C3=C4CCC(=O)C=C4CC[C@H]3[C@@H]1CC[C@@]2(O)C(F)(F)C(F)(F)F` [Example 40, 3-({4-[(11β,17β)-17-Hydroxy-3-oxo-17-(pentafluoroethyl)estra-4,9-dien-11-yl]benzyl}amino)benzenesulphonamide] was tested, and the IC50 was 0.49 nM.
`C[C@]12C[C@H](c3ccc(CN4CCC(c5ccccc5)CC4)cc3)C3=C4CCC(=O)C=C4CC[C@H]3[C@@H]1CC[C@@]2(O)C(F)(F)C(F)(F)F` [Example 41, (11β,17β)-17-Hydroxy-17-(pentafluoroethyl)-11-{4-[(4-phenylpiperidin-1-yl)methyl]phenyl}estra-4,9-dien-3-one] was tested, and the IC50 was 11.2 nM.
`CN(C)C(=O)N1CCN(Cc2ccc([C@H]3C[C@@]4(C)[C@@H](CC[C@@]4(O)C(F)(F)C(F)(F)F)[C@@H]4CCC5=CC(=O)CCC5=C43)cc2)CC1` [Example 42, 4-{4-[(11β,17β)-17-Hydroxy-3-oxo-17-(pentafluoroethyl)estra-4,9-dien-11-yl]benzyl}-N,N-dimethylpiperazine-1-carboxamide] gave an IC50 of 0.52 nM.
`C[C@]12C[C@H](c3ccc(CN4CCN(Cc5ccccn5)CC4)cc3)C3=C4CCC(=O)C=C4CC[C@H]3[C@@H]1CC[C@@]2(O)C(F)(F)C(F)(F)F` [Example 43, (11β,17β)-17-Hydroxy-17-(pentafluoroethyl)-11-(4-{[4-(pyridin-2-ylmethyl)piperazin-1-yl]methyl}phenyl)estra-4,9-dien-3-one] was tested, and the IC50 was 2.88 nM.
Compound `C[C@]12C[C@H](c3ccc(CN4CCN(Cc5cccnc5)CC4)cc3)C3=C4CCC(=O)C=C4CC[C@H]3[C@@H]1CC[C@@]2(O)C(F)(F)C(F)(F)F` [Example 44, (11β,17β)-17-Hydroxy-17-(pentafluoroethyl)-11-(4-{[4-(pyridin-3-ylmethyl)piperazin-1-yl]methyl}phenyl)estra-4,9-dien-3-one] has an IC50 of 3.06 nM.
Compound `CNC(=O)CN1CCN(Cc2ccc([C@H]3C[C@@]4(C)[C@@H](CC[C@@]4(O)C(F)(F)C(F)(F)F)[C@@H]4CCC5=CC(=O)CCC5=C43)cc2)CC1` [Example 45, 2-(4-{4-[(11β,17β)-17-Hydroxy-3-oxo-17-(pentafluoroethyl)estra-4,9-dien-11-yl]benzyl}piperazin-1-yl)-N-methylacetamide] has an IC50 of 1.65 nM.
`C[C@]12C[C@H](c3ccc(CN4CCCC4)cc3)C3=C4CCC(=O)C=C4CC[C@H]3[C@@H]1CC[C@@]2(O)C(F)(F)C(F)(F)F` [Example 46, (11β,17β)-17-Hydroxy-17-(pentafluoroethyl)-11-[4-(pyrrolidin-1-ylmethyl)phenyl]estra-4,9-dien-3-one] showed an IC50 of 37.4 nM.
`C[C@]12C[C@H](c3ccc(CNCc4ccncc4)cc3)C3=C4CCC(=O)C=C4CC[C@H]3[C@@H]1CC[C@@]2(O)C(F)(F)C(F)(F)F` [Example 47, (11β,17β)-17-Hydroxy-17-(pentafluoroethyl)-11-(4-{[(pyridin-4-ylmethyl)amino]methyl}phenyl)estra-4,9-dien-3-one] was tested, and the IC50 was 2.71 nM.
With `CN(Cc1ccc([C@H]2C[C@@]3(C)[C@@H](CC[C@@]3(O)C(F)(F)C(F)(F)F)[C@@H]3CCC4=CC(=O)CCC4=C32)cc1)c1ccccc1` [Example 48, (11β,17β)-17-Hydroxy-11-(4-{[methyl(phenyl)amino]methyl}phenyl)-17-(pentafluoroethyl)estra-4,9-dien-3-one] the IC50 was 1.28 nM.
For `C[C@]12C[C@H](c3ccc(CNc4ccccc4C(N)=O)cc3)C3=C4CCC(=O)C=C4CCC3C1CC[C@@]2(O)C(F)(F)C(F)(F)F` (stereo partly drawn) [Example 49, 2-({4-[(11β,17β)-17-Hydroxy-3-oxo-17-(pentafluoroethyl)estra-4,9-dien-11-yl]benzyl}arnino)benzamide], the IC50 was 1.29 nM.
Compound `C[C@]12C[C@H](c3ccc(CN4CCN(c5ccncc5)CC4)cc3)C3=C4CCC(=O)C=C4CC[C@H]3[C@@H]1CC[C@@]2(O)C(F)(F)C(F)(F)F` [Example 50, (11β,17β)-17-Hydroxy-17-(pentafluoroethyl)-11-(4-{[4-(pyridin-4-yl)piperazin-1-yl]methyl}phenyl)estra-4,9-dien-3-one] has an IC50 of 1.2 nM.
For `CN(C)CCN1CCN(Cc2ccc([C@H]3C[C@@]4(C)C(CC[C@@]4(O)C(F)(F)C(F)(F)F)C4CCC5=CC(=O)CCC5=C43)cc2)CC1` (stereo partly drawn) [Example 51, (11β,17β)-11-[4-({4-[2-(Dimethylamino)ethyl]piperazin-1-yl}methyl)phenyl]-17-hydroxy-17-(pentafluoroethyl)estra-4,9-dien-3-one], the IC50 was 64.7 nM.
Compound `CN(CCc1ccccn1)Cc1ccc([C@H]2C[C@@]3(C)[C@@H](CC[C@@]3(O)C(F)(F)C(F)(F)F)[C@@H]3CCC4=CC(=O)CCC4=C32)cc1` [Example 52, (11β,17β)-17-Hydroxy-11-[4-({methyl[2-(pyridin-2-yl)ethyl]amino}methyl)phenyl]-17-(pentafluoroethyl)estra-4,9-dien-3-one] has an IC50 of 6.5 nM.
In the case of `C[C@]12C[C@H](c3ccc(CNc4cccc(C(N)=O)c4)cc3)C3=C4CCC(=O)C=C4CC[C@H]3[C@@H]1CC[C@@]2(O)C(F)(F)C(F)(F)F` [Example 53, 3-({4-[(11β,17β)-17-Hydroxy-3-oxo-17-(pentafluoroethyl)estra-4,9-dien-11-yl]benzyl}amino)benzamide], the IC50 is reported as 0.84 nM.
For `C[C@]12C[C@H](c3ccc(CNc4ccc(C(=O)Nc5ccccc5)cc4)cc3)C3=C4CCC(=O)C=C4CC[C@H]3[C@@H]1CC[C@@]2(O)C(F)(F)C(F)(F)F` [Example 54, 4-({4-[(11β,17β)-17-Hydroxy-3-oxo-17-(pentafluoroethyl)estra-4,9-dien-11-yl]benzyl}amino)-N-phenylbenzamide], the IC50 was 1.28 nM.
